Experimental data from patent US10179770B2, “Quinolines derivatives as novel anticancer agents” (GENOSCIENCE PHARMA, priority 2013, dated 2019).

How the values were obtained:
HCT-15 = experiment: NCI-60 screen (SRB); format: cell-based; conditions: HCT-15 (Colon)
Summary of the method: (§1)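 Cells grown in RPMI 1640 with 5% FBS were plated, left 24 h, then exposed to five drug concentrations for 48 h at 37 °C. TCA-fixed protein was stained with SRB and read at 515 nm. GI50, TGI and LC50 were derived against time-zero and untreated control absorbances.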

HS 578T = experiment: NCI-60 screen (SRB); format: cell-based; conditions: HS 578T (Breast)
Summary of the method: as §1

OVCAR-3 = experiment: NCI-60 screen (SRB); format: cell-based, human; conditions: OVCAR-3 (Ovarian)
Protocol: (§2) The human tumor cell lines of the cancer screening panel are grown in RPMI 1640 medium containing 5% fetal bovine serum and 2 mM L-glutamine. For a typical screening experiment, cells are inoculated into 96 well microtiter plates in 100 μL at plating densities ranging from 5,000 to 40,000 cells/well depending on the doubling time of individual cell lines. After cell inoculation, the microtiter plates are incubated at 37° C., 5% CO2, 95% air and 100% relative humidity for 24 h prior to addition of experimental drugs.
(§3) After 24 h, two plates of each cell line are fixed in situ with TCA, to represent a measurement of the cell population for each cell line at the time of drug addition (Tz). Experimental drug is solubilized in dimethyl sulfoxide at 400-fold the desired final maximum test concentration and stored frozen prior to use. At the time of drug addition, an aliquot of frozen concentrate is thawed and diluted to twice the desired final maximum test concentration with complete medium containing 50 μg/ml gentamicin. Additional four, 10-fold or ½ log serial dilutions are made to provide a total of five drug concentrations plus control. Aliquots of 100 μl of these different drug dilutions are added to the appropriate microtiter wells already containing 100 μl of medium, resulting in the required final drug concentrations.
(§4) Following drug addition, the plates are incubated for an additional 48 h at 37° C., 5% CO2, 95% air, and 100% relative humidity. For adherent cells, the assay is terminated by the addition of cold TCA. Cells are fixed in situ by the gentle addition of 50 μl of cold 50% (w/v) TCA (final concentration, 10% TCA) and incubated for 60 minutes at 4° C. The supernatant is discarded, and the plates are washed five times with tap water and air dried. Sulforhodamine B (SRB) solution (100 μl) at 0.4% (w/v) in 1% acetic acid is added to each well, and plates are incubated for 10 minutes at room temperature. After staining, unbound dye is removed by washing five times with 1% acetic acid and the plates are air dried. Bound stain is subsequently solubilized with 10 mM trizma base, and the absorbance is read on an automated plate reader at a wavelength of 515 nm. For suspension cells, the methodology is the same except that the assay is terminated by fixing settled cells at the bottom of the wells by gently adding 50 μl of 80% TCA (final concentration, 16% TCA). Using the seven absorbance measurements [time zero, (Tz), control growth, (C), and test growth in the presence of drug at the five concentration levels (Ti)], the percentage growth is calculated at each of the drug concentrations levels.
(§5) Percentage growth inhibition is calculated as: [(Ti−Tz)/(C−Tz)]×100 for concentrations for which Ti>/=Tz (1) [(Ti−Tz)/Tz]×100 for concentrations for which Ti<Tz (2)
(§6) Growth inhibition of 50% (GI50) is calculated from [(Ti−Tz)/(C−Tz)]×100=50 (3)
(§7) which is the drug concentration resulting in a 50% reduction in the net protein increase (as measured by SRB staining) in control cells during the drug incubation.
(§8) The drug concentration resulting in total growth inhibition (TGI) is calculated from Ti=Tz (4)
(§9) The LC50 (concentration of drug resulting in a 50% reduction in the measured protein at the end of the drug treatment as compared to that at the beginning) indicating a net loss of cells following treatment is calculated from [(Ti−Tz)/Tz]×100=−50 (5)
(§10) Values are calculated for each of these three parameters if the level of activity is reached; however, if the effect is not reached or is exceeded, the value for that parameter is expressed as greater or less than the maximum or minimum concentration tested.

PC-3 = experiment: NCI-60 screen (SRB); format: cell-based, human; conditions: PC-3 (Prostate)
Protocol: as §2, §3, §4, §5, §6, §7, §8, §9, §10

UACC-62 = experiment: NCI-60 screen (SRB); format: cell-based, human; conditions: UACC-62 (Melanoma)
Protocol: as §2, §3, §4, §5, §6, §7, §8, §9, §10

BxPC-3 = experiment: Cell viability assay, pancreatic cancer cell lines; format: cell-based; conditions: Homo sapiens; BxPC-3 (Pancreas); 48 h
Protocol: (§11) MiaPaCa-2, Panc-1 cells were grown in Dulbecco's modified eagle's medium (DMEM) (Gibco) supplemented with 10% fetal bovine serum (FBS), while BxPC-3, Capan-1, Capan-2 cells were grown in Roswell Park Memorial Institute 1640 (RPMI 1640) (Gibco) supplemented with 10% FBS. Gemcitabine (Gemzar) was purchased from Lilly France S.A.S (Suresnes, France). (3-(4,5-dimethylthiazol-2-yl)-2,5diphenyltetrazolium bromide, MTT) was purchased from Sigma-Aldrich.
(§12) BxPC-3, MiaPaCa-2, Panc-1 cells were seeded into a 96-well plate at 10,000 10,000 15,000 cells per well respectively, while Capan-1 and Capan-2 cells at 20,000 cells per well and allowed to adhere overnight. Then the culture medium was removed and replaced with fresh media alone as control or containing various concentrations of different compounds. In dose-dependent assay, the cells were treated with compound XIX-3 at the concentration varying from 0.1 μM to 100 μM while the cells being cultured by fresh media alone were used as control. After 48 h treatment, the number of remained viable cells was determined by (3-(4,5-dimethylthiazol-2-yl)-2,5diphenyltetrazolium bromide, MTT) colorimetric assay (see Sigma Aldrich protocol and Riss T. L. et al. Cell Viability Assays in Assay Guidance Manual 2013 ppl.). All experiments were done in duplicate and repeated two independent times.

Capan-1 = experiment: Cell viability assay, pancreatic cancer cell lines; format: cell-based; conditions: Homo sapiens; Capan-1 (Pancreas); 48 h
Protocol: as §11, §12

Capan-2 = experiment: Cell viability assay, pancreatic cancer cell lines; format: cell-based; conditions: Homo sapiens; Capan-2 (Pancreas); 48 h
Protocol: as §11, §12

MIA PaCa-2 = experiment: Cell viability assay, pancreatic cancer cell lines; format: cell-based; conditions: Homo sapiens; MIA PaCa-2 (Pancreas); 48 h
Protocol: as §11, §12

Panc-1 = experiment: Cell viability assay, pancreatic cancer cell lines; format: cell-based; conditions: Homo sapiens; Panc-1 (Pancreas); 48 h
Protocol: as §11, §12

[1] = Homo sapiens, read-out: LC50 (the source's name)

SMILES	Growth percent at 10 μM (HCT-15)	Growth percent at 10 μM (HS 578T)	Growth percent at 10 μM (OVCAR-3)	Growth percent at 10 μM (PC-3)	Growth percent at 10 μM (UACC-62)	TGI (HCT-15) [µM]	GI50 (HCT-15; Homo sapiens) [µM]	CC50 (HCT-15; [1]) [µM]	TGI (HS 578T) [µM]	GI50 (HS 578T; Homo sapiens) [µM]	LC50 (concentration killing 50% of cells) (HS 578T; Homo sapiens) [µM]	GI50 (OVCAR-3; Homo sapiens) [µM]	CC50 (OVCAR-3; [1]) [µM]	TGI (OVCAR-3) [µM]	EC50 (BxPC-3) [µM]	EC50 (Capan-1) [µM]	EC50 (Capan-2) [µM]	EC50 (MIA PaCa-2) [µM]	EC50 (Panc-1) [µM]
CC(C)(C)NC1CCN(c2cc(-c3ccc(Cl)cc3)nc3ccccc23)CC1.Cl.Cl [XII-4, 2-(4-chloro-phenyl)-4-(4-N-tert-butylamino-piperidin-1-yl)quinoline dihydrochloride]	++++ (cell growth 0 > % < 20)	+ (cell growth 60 > % < 80)	− (cell growth % > 80)	+++ (cell growth 20 > % < 40)	××××× (cell growth % < −80)														
CCN(CC)C1CCN(C(C)c2cc(-c3ccccc3)nc3ccccc23)CC1.Cl.Cl (stereo not drawn) [XIX-3, 2-phenyl-4-{1-[4-(N,N-diethylamino)piperidin-1-yl]-eth-1-yl}quinoline dihydrochloride]	++++ (cell growth % < 20)	+ (cell growth 60 > % < 80)	+ (cell growth 60 > % < 80)	+ (cell growth 60 > % < 80)	×××× (cell growth −60 > % < −80)	14	3	47	35	11	100	14	55	28	33	27	32	34	34
